Results published in patent publication US8133861B2, “Systemic purine administration: modulating axonal outgrowth of central nervous system neurons” (Alseres Pharmaceuticals, Inc., priority 2008, dated 2012).
Entries after “also recorded” stand apart in the source; their conditions may differ.

Key:
traumatic brain injury = experiment: Treatment of a subject with a traumatic brain injury with inosine (Examples 8, 12); format: in vivo; conditions: inosine (50 mM) and NaCl (0.15M), 1 g/kg/day
Procedure: A subject with a traumatic brain injury, is treated with an intravenous infusion of a solution of inosine (50 mM) and NaCl (0.15M) at a rate of 1 g/kg/day. […] A subject with a traumatic brain injury, is treated with subcutaneous injection of a solution of inosine (50 mM) and NaCl (0.15M) at a rate of 1 g/kg/day.

[1] = Brain (medial prefrontal cortex) microdialysate inosine during intravenous inosine infusion in rats; format: in vivo, rat; conditions: for CNS microdialysate inosine, percent of baseline / CNS microdialysate inosine, maximal increase (percent of baseline) / time to maximal increase of CNS microdialysate inosine: rat
Procedure: (§1) Two groups of three rats were dosed intravenously with a total of 4 different concentrations of inosine and vehicle, providing within-subjects comparisons. Rats were anesthetized and each was surgically implanted above the medial prefrontal cortex (A-P +3.2 and M-L +1.0 from Bregma, D-V −2.0 from the skull surface) with an intracerebral guide cannula that was replaced after three days by a microdialysis probe. The microdialyses probes were continually flushed with artificial cerebrospinal fluid (aCSF). Catheters were inserted into the jugular vein for inosine dosing and into the femoral artery for blood collection.
(§2) Inosine formulated in aqueous bicarbonate buffer (pH 9.2) was administered by intravenous infusion for up to two hours to two groups of rats (N=3 per group) and the microdialysis probes were perfused with aCSF at a rate of 0.015 mL/minute. One group received nominal dose rates of 0 (vehicle), 100, and 300 mg/kg/hour, and the other group received nominal dose rates of 0, 500, and 700 mg/kg/hour. Each nominal infusion rate was 10 mL/kg/hour and was separated by a 2-day washout period.
(§3) Blood samples and brain microdialysates were collected prior to each dose to establish basal concentrations of inosine, and for a period of 2 hrs after each dose to determine the percent of change (increase, decrease, or none) relative to basal. Microdialysate and blood plasma inosine concentrations were measured using an LC/MS/MS assay. The lower limit of quantitation of the rat plasma analysis and the CNS microdialysate was 0.25 ng/mL.
The subjects were naïve, male, Sprague-Dawley rats procured for this study from Harlan Spraque Dawley, Inc. (Indianapolis, Ind.). All rats selected for surgeries were quarantined, inspected and deemed acceptable for surgery by technicians qualified to make this assessment. Intracerebral guide cannulae were surgically implanted above the medial prefrontal cortex (mPFC). Rats were provided with a single dose of analgesic immediately after surgery to alleviate discomfort. Animals were inspected frequently during post-surgical recovery. After 3 days, the stylet in the intracerebral guide cannula was replaced with a microdialysis probe.
(§4) All study subjects were dosed via JVC catheters without handling. Prior to collecting pre-dose microdialysates, glass vials were loaded with the appropriate drug solution and connected to an Empis system. All rats received the doses of inosine they were intended to receive, as the infusion rate was ˜50 μl/min over the 2 hr dosing period. Two days later, all rats received the doses of inosine they were intended to receive, as the infusion rate was ˜50 μl/min over the 2 hr dosing period. All rats then received reduced doses of inosine, as the infusion rat was reduced to ˜40 μl/min over a 2 hr dosing period.
(§5) Samples of CNS microdialysate (0.03 mL) and arterial blood (0.15 mL) were taken for analysis of inosine concentration before infusion, and at specified times after the start of the infusions (20, 40, 60, 80, and 120 minutes).
Changes in inosine concentrations are expressed as percent of baseline in order to compare changes in inosine concentrations between treatments.
(§6) Changes in inosine concentrations (percent of baseline) were determined by dividing a particular post-dose inosine concentration (ng/mL) by the average of 4 pre-dose (baseline) inosine concentrations (ng/mL) and multiplying this value by 100%. Where plasma inosine (μg/mL) values appeared to reach steady-state by inspection of the last three time points, approximately values for clearance (L/kg/hour) were obtained from the relationship, clearance=infusion rate (mg/kg/hour)/steady-state concentration (mg/L). Mean percent of baseline changes in inosine concentrations were plotted for each treatment condition.

[2] = Plasma inosine during 2-hr intravenous inosine infusion in rats (LC/MS/MS); format: in vivo, rat; conditions: for clearance: male, Sprague-Dawley, plasma, iv, infusion rate/steady-state concentration; for clearance / Plasma inosine concentration, maximal value / Steady-state mean plasma inosine level: rat
Procedure: as §1, §2, §3, §4, §5, §6

[3] = system: rat hemisection model of spinal cord injury; experiment: Rat dorsal hemisection model of spinal cord injury, BBB score of locomotor function; format: in vivo; conditions: approximately 2 mg/kg/hr
Procedure: This example considers intravenous infusion of inosine in rodent model of acute spinal cord injury. Rats were anesthetized and each was subjected to laminectomy in the thoracic region of the spinal cord, followed by dorsal hemisection of the spinal cord that included severance of the cortical spinal tract as a model of spinal cord injury (SCI). These rats were divided into two groups: one group was dosed by continuous intravenous infusion of 70 mg/mL (261 mM) inosine formulated in 0.1% sodium bicarbonate solution, pH approximately 9.2, for four weeks, and the other group was dosed by continuous intravenous infusion with 0.1% sodium bicarbonate vehicle control for four weeks. The infusion rate was 10 microliters per hour for inosine (approximately 2 mg/kg/hr) and vehicle dosing, and the infusions were started immediately after the SCI. In this regard it is noted that dosing at 2 mg/kg/hr represents a dose of about 48 mg/kg/day. In a 70 kg subject this is equivalent to about 3-4 g/day. Attention is drawn to daily doses from about 1 g/day to about 10 gm/day with attention being drawn to doses of about 2 g/day and about 5 day.
Rats were evaluated one day post-SCI to verify completeness of the lesion, and then weekly for functional status by assessment using the Basso-Beattie-Bresnahan (BBB) score of locomotor function as judged by hind-limb function and forelimb:hind-limb coordination. […]

[4] = system: central nervous system injury; experiment: Treatment of a subject with central nervous system injury with inosine (Examples 5, 9, 13); format: in vivo
Procedure: A subject with central nervous system injury, is treated with an intravenous infusion of a solution of inosine (50 mM) and NaCl (0.15M) at a rate of 1 g/kg/day. […] A subject with central nervous system injury, is treated with a subcutaneous injection of a solution of inosine (50 mM) and NaCl (0.15M) at a rate of 1 g/kg/day. […] A subject with central nervous system injury is treated with intravenous infusion of a solution of inosine in a formulation of 0.1% sodium bicarbonate 70 mg/mL inosine, pH9.2. The 250 ml of the inosine formulation is infused over a two hour period. This procedure is repeated for 14 days.

[5] = Inosine prototype formulations: approximate potency, solubility and precipitation; format: physicochemical
Procedure: A number of inosine formulations were examined. Preparatory steps were as follows:
Inosine protype formulations were prepared by adding inosine drug substance to tare vials containing about 3-5 mL of aqueous solutions containing various pharmaceutical excipients in various concentrations. […] Common I.V. solutions such as phosphate buffered saline, normal saline and 5% dextrose in water are noted.
Megulmine is known to function both as a solubilizing and alkalizing agent, thus precluding the need for a buffering species which would unfavorably increase ionic strength in the formulation.
The composition of each formulation is provided in Table I. The pH of the formulation is reported for those formulations for which it was tested.

spinal cord injury = experiment: Treatment of a subject with a spinal cord injury with inosine (Examples 7, 11); format: in vivo; conditions: inosine (50 mM) and NaCl (0.15M), 1 g/kg/day
Procedure: A subject with a spinal cord injury, is treated with an intravenous infusion of a solution of inosine (50 mM) and NaCl (0.15M) at a rate of 1 g/kg/day. […] A subject with a spinal cord injury, is treated with an subcutaneous injection of a solution of inosine (50 mM) and NaCl (0.15M) at a rate of 1 g/kg/day.

stroke = experiment: Treatment of a subject with an onset of stroke with inosine (Examples 6, 10); format: in vivo; conditions: inosine (50 mM) and NaCl (0.15M), 1 g/kg/day
Procedure: A subject with an onset of stroke, is treated with an intravenous infusion of a solution of inosine (50 mM) and NaCl (0.15M) at a rate of 1 g/kg/day. […] A subject with an onset of stroke, is treated with an subcutaneous injection of a solution of inosine (50 mM) and NaCl (0.15M) at a rate of 1 g/kg/day.

With OC[C@H]1O[C@@H](n2cnc3c(O)ncnc32)[C@H](O)[C@@H]1O [inosine] the neurological deficit (traumatic brain injury; Example 8: intravenous infusion) was “Amelioration of the neurological deficit”, the neurological deficit (traumatic brain injury; Example 12: subcutaneous injection) was “Amelioration of the neurological deficit” and the “CNS microdialysate inosine, percent of baseline” value ([1]; i.v. infusion 100 mg/kg/hour) was 113-146%. For the same molecule, the “CNS microdialysate inosine, percent of baseline” value ([1]; i.v. infusion 300 mg/kg/hour) was 96-116%, the “CNS microdialysate inosine, maximal increase (percent of baseline)” value ([1]; i.v. infusion 500 mg/kg/hour) was 526-632% and the “time to maximal increase of CNS microdialysate inosine” value ([1]; i.v. infusion 500 mg/kg/hr) was at most 45 min. For the same molecule, the “CNS microdialysate inosine, maximal increase (percent of baseline)” value ([1]; i.v. infusion 700 mg/kg/hour) was 574-653%, the “time to maximal increase of CNS microdialysate inosine” value ([1]; i.v. infusion 700 mg/kg/hr) was at most 45 min and the “inosine levels above background” value ([1]; rats, i.v., 160-200 mg/kg/2 hrs) was “approximately 170%”. The “inosine levels above background” value ([1]; rats, i.v., 480-600 mg/kg/2 hrs) was “approximately 170%”, the “interstitial inosine as compared with the baseline/predose concentrations” value ([1]; rats, i.v., about 800 to 1000 mg/kg over about two hours (Formulation 80 diluted to 50 mg/mL)) was “approximately 500%” and the clearance ([2]; i.v. infusion 300 mg/kg/hour) was 218 mL/min/kg. The clearance ([2]; i.v. infusion 500 mg/kg/hour) was 257 mL/min/kg, the “Plasma inosine concentration, maximal value” (“Plasma inosine concentration” below) ([2]; i.v. infusion 100 mg/kg/hr) was at most 7.2 µg/mL and the “Steady-state mean plasma inosine level” value ([2]; i.v. infusion 300 mg/kg/hour) was 22.8 µg/mL. The “Plasma inosine concentration” value ([2]; i.v. infusion 300 mg/kg/hr) was at most 26 µg/mL, the “Steady-state mean plasma inosine level” value ([2]; i.v. infusion 500 mg/kg/hour) was 32.4 µg/mL and the “Plasma inosine concentration” value ([2]; i.v. infusion 500 mg/kg/hr) was at most 45 µg/mL. The “Plasma inosine concentration” value ([2]; i.v. infusion 700 mg/kg/hr) was at most 146 µg/mL, the inosine plasma levels ([2]; rats, i.v., about 800 to 1000 mg/kg over about two hours) was “significant rise” and the functional outcome ([3]; continuous i.v. infusion, four weeks, P<0.01 weeks one and two, P<0.001 weeks three and four vs. vehicle) was “improves functional outcome; also recorded: continual or sustained improvement”. The BBB scores ([3]; three to four weeks post-SCI, continuous i.v. infusion 70 mg/mL, maximal score 21) was “near maximal possible values”, the neurological deficit ([4]; Example 5: intravenous infusion, inosine (50 mM) and NaCl (0.15M), 1 g/kg/day) was “Amelioration of the neurological deficit” and the neurological deficit ([4]; Example 9: subcutaneous injection, inosine (50 mM) and NaCl (0.15M), 1 g/kg/day) was “Amelioration of the neurological deficit”. For the same molecule, the neurological deficit ([4]; Example 13: intravenous infusion, 0.1% sodium bicarbonate 70 mg/mL inosine pH9.2, 250 ml over two hours, 14 days) was “Amelioration of the neurological deficit”, the inosine solubility ([5]; high pH environments) was “greatly enhanced” and the inosine solubility ([5]; higher concentrations of saline solutions) was “reduced solubility”. For the same molecule, the neurological deficit (spinal cord injury; Example 7: intravenous infusion) was “Amelioration of the neurological deficit”, the neurological deficit (spinal cord injury; Example 11: subcutaneous injection) was “Amelioration of the neurological deficit” and the neurological deficit (stroke; Example 6: intravenous infusion) was “Amelioration of the neurological deficit”. The neurological deficit (stroke; Example 10: subcutaneous injection) was “Amelioration of the neurological deficit”.
